# Measurements as given in patent US20080248511A1, “METHODS TO QUENCH LIGHT FROM OPTICAL REACTIONS” (priority 2007, published 2008).
# Like-named read-outs stand apart in the source and are kept apart here.
# How the values were obtained:
# Format in all cases: biochemical
# firefly luciferase [1] = target: T1, firefly luciferase (Photinus pyralis, UniProt P08659); test: Quaternary ammonium/phosphonium detergent screen, firefly luciferase (Example 5); settings: Tergitol NP-9 present
# Protocol: (§1) Each detergent was added at 0.2% to a reagent solution containing 50 mM Tricine pH 8.3, 3.5 mM MgSO4, 1 mM CDTA, 30 mM thiourea and 0.5% Tergitol NP-9. This solution or one not containing a detergent inhibitor was used to resuspend the Bright-Glo™ luciferin substrate (Promega).
# (§2) The luciferase reactions were initiated by adding 100 μl of the firefly luciferase or Renilla luciferase enzyme solutions to 100 μl of reagent solution. The reactions were performed as described above. […] The detergent concentrations listed refer to the final concentration in the reaction.
# Renilla luciferase [2] = target: T2, Renilla luciferase (Renilla reniformis, UniProt P27652); test: Quaternary ammonium/phosphonium detergent screen, Renilla luciferase (Example 5); settings: final conc. 0.03% detergent; for remaining activity at 0.03 % / Retained Renilla Luciferase Luminescence (%): Tergitol NP-9 present; for remaining activity at 0.03 %: read-out: Retained Renilla Luciferase Luminescence (%)
# T2 sequence (P27652 1-311): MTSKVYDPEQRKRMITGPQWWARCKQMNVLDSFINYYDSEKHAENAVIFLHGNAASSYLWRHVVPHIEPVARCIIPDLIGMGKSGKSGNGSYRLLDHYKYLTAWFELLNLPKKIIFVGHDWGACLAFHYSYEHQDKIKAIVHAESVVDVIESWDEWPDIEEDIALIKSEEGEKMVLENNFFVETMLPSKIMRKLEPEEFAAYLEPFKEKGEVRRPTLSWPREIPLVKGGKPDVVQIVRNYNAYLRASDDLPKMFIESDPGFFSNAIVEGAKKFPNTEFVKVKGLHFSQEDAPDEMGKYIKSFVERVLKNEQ
# firefly luciferase [3] = target: T1, firefly luciferase; test: Quaternary ammonium/phosphonium detergent screen, firefly luciferase (Example 5); settings: final conc. 0.03% detergent, Tergitol NP-9 present; for remaining activity at 0.03 %: read-out: Retained Firefly Luciferase Luminescence (%)
# Renilla luciferase [4] = target: T2, Renilla luciferase; test: Quaternary ammonium/phosphonium detergent screen, Renilla luciferase (Example 5); settings: for remaining activity at 0.1 % / Retained Renilla Luciferase Luminescence (%): Tergitol NP-9 present
# Protocol: as §1, §2
# Renilla luciferase [5] = target: T2, Renilla luciferase; test: Detergent titration with Tergitol NP-9, digitonin or no lysing agent, Renilla luciferase (Example 4); settings: for remaining activity at 0.0005 % / remaining activity at 0.005 % / remaining activity at 0.05 %: read-out: Relative Renilla Luc Intensity
# Protocol: Renilla luciferase-mediated luminescence was measured from samples containing 9.6 mM phosphate buffer pH 6.8, 2.7 mM KCl, 137 mM NaCl (in PBS), 0.1% gelatin, 75 nM coelentrazine (Promega) and 10.2 ng/ml Renilla luciferase. Reactions contained either no lysing agent, 0.5% Tergitol NP-9 or 20 μg/ml digitonin. The detergents to be tested were titrated to 0.05%, 0.005% or 0.0005% in the reactions prior to the addition of the Renilla luciferase. Renilla luciferase-mediated luminescence was measured as described herein.
# firefly luciferase [6] = target: T1, firefly luciferase; test: Detergent titration with Tergitol NP-9, digitonin or no lysing agent, firefly luciferase (Example 4); settings: read-out: Relative Firefly Luc Intensity; for remaining activity at 0.0005 %: 0.0005% detergent; for remaining activity at 0.005 %: 0.0050% detergent; for remaining activity at 0.05 %: 0.0500% detergent
# Protocol: For measurement of firefly luciferase-mediated luminescence, a solution containing 110 mM HEPES pH 7.5, 8 mM MgSO4, 0.05% gelatin, 7.35 ng/ml firefly luciferase (QuantiLum® Luciferase; Promega) and the content of the Steady-Glo Luciferase Substrate (Promega) at the equivalent of 1×, As in the Renilla luciferase reactions, reactions contained either no lysing agent, 0.5% Tergitol NP-9 or 20 μg/ml digitonin. The same detergents were titrated as described above and firefly luciferase-mediated luminescence was measured.
# Renilla luciferase [7] = target: T2, Renilla luciferase; test: biochemical; settings: 0.5% detergent in Renilla Luciferase Assay Reagent; read-out: Retained Renilla Luciferase Luminescence (%)
# Protocol: The retained luminescence for each luciferase was calculated by dividing the luminescence in the presence of the detergent by the luminescence in the absence of the test detergent. The selectivity value for each of the test detergents was determined by dividing the retained firefly luciferase luminescence by the retained Renilla luciferase luminescence.
# A set of detergents (Table 2; Sigma-Aldrich) was added at 0.5% (from a 5% or 10% stock solution) to either Luciferase Assay Reagent (Promega) or Renilla Luciferase Assay Reagent (Promega) and allowed to equilibrate at room temperature.
# The firefly luciferase and Renilla luciferase enzymes were diluted as follows. Firefly luciferase was diluted to 14 ng/ml in Phosphate Buffered Saline (PBS) containing 0.1% of the protein carrier Prionex® (Pentapharm). Renilla luciferase was diluted to 10 ng/ml in 1× Renilla Luciferase Lysis Buffer (Promega) containing 0.1% Prionex®. The Renilla Luciferase Lysis Buffer […] detergent micelles when using the Renilla Luciferase Assay Reagent. In the absence of other detergents, this prevents sequestering of coelenterazine which inhibits Renilla luciferase-mediated luminescence.
# The luciferase reactions were initiated by adding 40 μl of either the firefly or Renilla luciferase enzyme solution to 200 μl of the appropriate reagent solution (firefly luciferase enzyme solution+firefly luciferase reagent solution or Renilla luciferase enzyme solution+Renilla luciferase reagent solution, respectively). The reactions were performed in an opaque white, 96-well plate and luminescence was measured for 0.5 seconds per well using a Turner BioSystems Veritas™ Microplate luminometer. The retained firefly luciferase and Renilla luciferase luminescence, as well as the selectivity values for each detergent, were calculated (Table 2).
# [8] = read-out: Retained Firefly Luciferase Luminescence (%), final conc. 0.10% detergent
# [9] = read-out: Retained Renilla Luciferase Luminescence (%), final conc. 0.10% detergent
# [10] = final conc. 0.10% detergent, read-out: Retained Firefly Luciferase Luminescence (%)
# [11] = final conc. 0.10% detergent, read-out: Retained Renilla Luciferase Luminescence (%)
# T1 sequence (P08659 whole entry): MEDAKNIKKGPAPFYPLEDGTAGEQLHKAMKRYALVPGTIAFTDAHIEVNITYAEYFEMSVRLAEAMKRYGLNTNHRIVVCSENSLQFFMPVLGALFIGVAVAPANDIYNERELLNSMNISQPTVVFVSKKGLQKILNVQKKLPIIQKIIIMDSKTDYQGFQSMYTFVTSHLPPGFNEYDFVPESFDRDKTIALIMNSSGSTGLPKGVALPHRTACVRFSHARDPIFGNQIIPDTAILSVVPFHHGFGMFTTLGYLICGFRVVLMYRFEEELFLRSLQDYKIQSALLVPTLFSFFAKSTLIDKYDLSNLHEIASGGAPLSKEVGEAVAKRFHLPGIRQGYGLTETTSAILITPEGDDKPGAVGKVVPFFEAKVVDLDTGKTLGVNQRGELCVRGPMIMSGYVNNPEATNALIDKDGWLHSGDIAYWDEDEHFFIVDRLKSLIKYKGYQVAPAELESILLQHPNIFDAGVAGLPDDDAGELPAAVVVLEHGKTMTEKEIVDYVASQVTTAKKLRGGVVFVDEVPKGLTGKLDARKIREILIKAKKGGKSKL
smiles,measurement,setting,value
CC[N+](CC)(CC)Cc1ccccc1.[Br-] [Benzyltriethylammonium bromide],remaining activity at 0.1 %,firefly luciferase [1]; [8],100%
same,Selectivity Value,Renilla luciferase [2],1.0
same,remaining activity at 0.03 %,Renilla luciferase [2],95%
same,remaining activity at 0.03 %,firefly luciferase [3],97%
same,Selectivity Value,Renilla luciferase [4]; final conc. 0.10% detergent,0.9
same,remaining activity at 0.1 %,Renilla luciferase [4]; [9],87%
C[N+](C)(Cc1ccccc1)c1ccccc1.[Br-] [Benzyldimethylphenylammonium bromide],Retained Firefly Luciferase Luminescence (%),firefly luciferase [1]; final conc. 0.10% detergent,107%
same,Selectivity Value,Renilla luciferase [2],1.3
same,Retained Renilla Luciferase Luminescence (%),Renilla luciferase [2],78%
same,Retained Firefly Luciferase Luminescence (%),firefly luciferase [3],101%
same,Selectivity Value,Renilla luciferase [4]; final conc. 0.10% detergent,1.3
same,Retained Renilla Luciferase Luminescence (%),Renilla luciferase [4]; final conc. 0.10% detergent,81%
"CC1(C)C=Cc2ccccc2[N+]1(C)C.[I-] [1,1,2,2-Tetramethyl-1,2-dihydor-quinolynium iodide]",Retained Firefly Luciferase Luminescence (%),firefly luciferase [1]; final conc. 0.10% detergent,74%
same,Selectivity Value,Renilla luciferase [2],1.0
same,Retained Renilla Luciferase Luminescence (%),Renilla luciferase [2],88%
same,Retained Firefly Luciferase Luminescence (%),firefly luciferase [3],87%
same,Selectivity Value,Renilla luciferase [4]; final conc. 0.10% detergent,1.2
same,Retained Renilla Luciferase Luminescence (%),Renilla luciferase [4]; final conc. 0.10% detergent,89%
C=CCCC[P+](c1ccccc1)(c1ccccc1)c1ccccc1.[Br-] [(4-Penten-1-yl)triphenylphosphonium bromide],remaining activity at 0.1 %,firefly luciferase [1]; [10],102%
same,Selectivity Value,Renilla luciferase [2],1.7
same,remaining activity at 0.03 %,Renilla luciferase [2],57%
same,remaining activity at 0.03 %,firefly luciferase [3],98%
same,Selectivity Value,Renilla luciferase [4]; final conc. 0.10% detergent,4.9
same,remaining activity at 0.1 %,Renilla luciferase [4]; [11],21%
C[N+](C)(C)Cc1ccccc1.[Br-] [Benzyltrimethylammonium bromide],remaining activity at 0.1 %,firefly luciferase [1]; [8],100%
same,Selectivity Value,Renilla luciferase [2],1.0
same,remaining activity at 0.03 %,Renilla luciferase [2],95%
same,remaining activity at 0.03 %,firefly luciferase [3],99%
same,Selectivity Value,Renilla luciferase [4]; final conc. 0.10% detergent,1.0
same,remaining activity at 0.1 %,Renilla luciferase [4]; [9],87%
CCCCCCCCCC[N+](C)(C)Cc1ccccc1.[Cl-] [Benzyldimethyldecylammonium chloride],remaining activity at 0.1 %,firefly luciferase [1]; [10],112%
same,Selectivity Value,Renilla luciferase [2],6.3
same,remaining activity at 0.03 %,Renilla luciferase [2],18%
same,remaining activity at 0.03 %,firefly luciferase [3],114%
same,Selectivity Value,Renilla luciferase [4]; final conc. 0.10% detergent,112
same,remaining activity at 0.1 %,Renilla luciferase [4]; [11],1%
CCCCCCCCCCCCCCCC[N+](C)(C)C.[Cl-] [Cetyltrimethylammonium chloride],Selective Inhibition (Ff Luc Inh/Ren Luc Inh),"Renilla luciferase [5]; 0.0005% detergent, Dig",12
same,remaining activity at 0.0005 %,"Renilla luciferase [5]; 0.0005% detergent, Dig",14%
same,Selective Inhibition (Ff Luc Inh/Ren Luc Inh),"Renilla luciferase [5]; 0.0005% detergent, Terg",1.0
same,remaining activity at 0.0005 %,"Renilla luciferase [5]; 0.0005% detergent, Terg",95%
same,Selective Inhibition (Ff Luc Inh/Ren Luc Inh),"Renilla luciferase [5]; 0.0005% detergent, Water",13
same,remaining activity at 0.0005 %,"Renilla luciferase [5]; 0.0005% detergent, Water",13%
same,Selective Inhibition (Ff Luc Inh/Ren Luc Inh),"Renilla luciferase [5]; 0.0050% detergent, Dig",2829
same,remaining activity at 0.005 %,"Renilla luciferase [5]; 0.0050% detergent, Dig",0.02%
same,Selective Inhibition (Ff Luc Inh/Ren Luc Inh),"Renilla luciferase [5]; 0.0050% detergent, Terg",1.3
same,remaining activity at 0.005 %,"Renilla luciferase [5]; 0.0050% detergent, Terg",71%
same,Selective Inhibition (Ff Luc Inh/Ren Luc Inh),"Renilla luciferase [5]; 0.0050% detergent, Water",3848
same,remaining activity at 0.005 %,"Renilla luciferase [5]; 0.0050% detergent, Water",0.02%
same,remaining activity at 0.05 %,"Renilla luciferase [5]; 0.0500% (w:v) detergent, Terg (0.5% Tergitol NP-9)",6%
same,Selective Inhibition (Ff Luc Inh/Ren Luc Inh),"Renilla luciferase [5]; 0.0500% detergent, Dig",1395
same,remaining activity at 0.05 %,"Renilla luciferase [5]; 0.0500% detergent, Dig (20 μg/ml digitonin)",0.02%
same,Selective Inhibition (Ff Luc Inh/Ren Luc Inh),"Renilla luciferase [5]; 0.0500% detergent, Terg",6
same,Selective Inhibition (Ff Luc Inh/Ren Luc Inh),"Renilla luciferase [5]; 0.0500% detergent, Water",1611
same,remaining activity at 0.05 %,"Renilla luciferase [5]; 0.0500% detergent, Water (no lysing agent)",0.02%
same,remaining activity at 0.0005 %,firefly luciferase [6]; Dig,164%
same,remaining activity at 0.0005 %,firefly luciferase [6]; Terg,98%
same,remaining activity at 0.0005 %,firefly luciferase [6]; Water,179%
same,remaining activity at 0.005 %,firefly luciferase [6]; Dig,65%
same,remaining activity at 0.005 %,firefly luciferase [6]; Terg,94%
same,remaining activity at 0.005 %,firefly luciferase [6]; Water,70%
same,remaining activity at 0.05 %,firefly luciferase [6]; Dig (20 μg/ml digitonin),29%
same,remaining activity at 0.05 %,firefly luciferase [6]; Terg (0.5% Tergitol NP-9),38%
same,remaining activity at 0.05 %,firefly luciferase [6]; Water (no lysing agent),31%
same,remaining activity at 0.5 %,Renilla luciferase [7],5.23%
